The target of the test is HDAC enzyme. The test can be described thus: Inhibition of Histone Deacetylase Enzymatic Activity (Assay Examples 1 and 2). In kind it is biochemical. As to conditions: HDAC isoform not specified; fluorogenic Boc-Lys(Ac)-AMC or Boc-Lys(trifluoroacetyl)-AMC substrate. As for the experimental part:
The following protocol is used to assay the compounds of the invention. In the assay, the buffer used is 25 mM HEPES, pH 8.0, 137 mM NaCl, 2.7 mM KCl, 1 mM MgCl2 and the subtrate is Boc-Lys(Ac)-AMC in a 50 mM stock solution in DMSO. The enzyme stock solution is 4.08 μg/mL in buffer.
The compounds are pre-incubated (2 μl in DMSO diluted to 13 μl in buffer for transfer to assay plate) with enzyme (20 μl of 4.08 μg/ml) for 10 minutes at room temperature (35 μl pre-incubation volume). The mixture is pre-incubated for 5 minutes at room temperature. The reaction is started by bringing the temperature to 37° C. and adding 16 μl substrate. Total reaction volume is 50 μl. The reaction is stopped after 20 minutes by addition of 50 μl developer, prepared as directed by Biomol (Fluor-de-Lys developer, Cat. #KI-105). A plate is incubated in the dark for 10 minutes at room temperature before reading (λEx=360 nm, λEm=470 nm, Cutoff filter at 435 nm).
Alternatively, HDAC inhibitory activity was determined using the following assay.
A 30 mM stock of Boc-Lys(trifluoroacetyl)-AMC substrate is prepared in DMSO. 2 μL of test compound in DMSO is diluted to 50 μL in buffer (25 mM HEPES, pH 8.0, 137 mM NaCl, 2.7 mM KCl, 1 mM MgCl2, 0.1% BSA) and pre-incubated with HDAC enzyme (30 μL of a final enzyme concentration of 0.1-0.2 nM) for 10 minutes at room temperature. Reaction is started by adding 18 μL Boc-Lys(trifluoroacetyl)-AMC substrate and incubating at 37° C. for 20-30 minutes. The reaction is stopped by adding 50 μL trypsin (1 mg/mL) and a known HDAC inhibitor (such as LAQ-824). The plate is then incubated in the dark for 20 minutes at room temperature and read with Ex=360 nm, Em=470 nm, cutoff filter at 435 nm.
In the table, A≦0.2 μM; 0.2 μM<B≦0.5 μM; […]; and 1 μM<D≦6 μM.
For orientation: IC50 means the concentration needed to halve the response being measured. The low end stands for greater potency in that assay, the high end for weaker potency in that assay. As to `COC(=O)N[C@@H](CCCCNS(N)(=O)=O)C(=O)Nc1nc(-c2ccccc2)cs1` [Compound 319, (S)-methyl 1-oxo-1-(4-phenyl-thiazol-2-ylamino)-6-(sulfamoyl-amino)-hexan-2-ylcarbamate], the concentration for half-maximal inhibition (IC50) was at most 0.2 µM.
Then `COc1ccc(-c2nc([C@H](CCCCNS(N)(=O)=O)NC(=O)OCc3ccccc3)c[nH]2)cc1` [Compound 327, (S)-benzyl 1-(2-(4-methoxyphenyl)-1H-imidazol-4-yl)-5-(sulfamoylamino)pentylcarbamate], with at most 0.2 µM; and `NS(=O)(=O)NCCCC[C@H](NC(=O)OCc1ccccc1)c1n[nH]c(-c2ccccc2)n1` [Compound 335, (S)-benzyl 1-(5-phenyl-1H-1,2,4-triazol-3-yl)-5-(sulfamoylamino)pentylcarbamate], with at most 0.2 µM.
As to `Cc1ccc(-c2nc([C@H](CCCCNS(N)(=O)=O)NC(=O)OCc3ccccc3)c[nH]2)cc1` [Compound 348, (S)-benzyl 5-(sulfamoyl-amino)-1-(2-p-tolyl-1H-imidazol-4-yl)pentyl-carbamate], the IC50 is 0.2 to 0.5 µM.
In turn, `NS(=O)(=O)NCCCC[C@H](NC(=O)OCc1ccccc1)c1csc(-c2ccc(Br)cc2)n1` [Compound 361, (S)-benzyl 1-(2-(4-bromo-phenyl)-thiazol-4-yl)-5-(sulfamoyl-amino)-pentyl-carbamate] came in with a 50% inhibitory concentration (IC50) of 0.2 to 0.5 µM.
The molecule `NS(=O)(=O)NCCCC[C@H](NC(=O)OCc1ccccc1)c1csc(Nc2ccccc2)n1` [Compound 364, (S)-benzyl 1-(2-(phenyl-amino)-thiazol-4-yl)-5-(sulfamoyl-amino)-pentyl-carbamate] showed a concentration for half-maximal inhibition (IC50) of 0.5 to 1 µM.

The values above are taken from patent publication US20070293530A1, “SULFAMIDE AND SULFAMATE DERIVATIVES AS HISTONE DEACETYLASE INHIBITORS” (METHYLGENE INC., priority 2006, published 2007).
